This is an account of results in ChEMBL document CHEMBL1667796, “Synthesis and evaluation of phosphonated N-heteroarylcarboxamides as DOXP-reductoisomerase (DXR) inhibitors” (Bioorg Med Chem, 2011).

The subject of experiment [1] is Escherichia coli. Briefly: Inhibition of Escherichia coli DXR assessed as conversion of NADPH to NADP at 0.3 uM by spectrophotometry.
For experiment [2], the system named is Escherichia coli. Description: Binding affinity at Escherichia coli DXR by saturation transfer difference NMR spectroscopy.
Experiment [3] deals with Escherichia coli. Briefly: Inhibition of Escherichia coli DXR assessed as conversion of NADPH to NADP at 500 uM by spectrophotometry.
The nature of experiment [4]: Inhibition of Escherichia coli DXR assessed as conversion of NADPH to NADP by spectrophotometry.

Calls of active or inactive are those of the source. The calls are words filed in the database; no cut-off is given here.

On to `O=CN(O)CCCP(=O)(O)O`, for which the inhibition in experiment [1] worked out at 99.3%.
For `O=C(CP(=O)(O)O)Nc1nccs1`, the result in experiment [2] was Active. In addition, the inhibition in experiment [3] is 7.4%. Besides, in experiment [4] (read-out: IC50), the IC50 is > 1500 µM.
Take `CCOP(=O)(CC(=O)Nc1nc(C)c(C(C)=O)s1)OCC`: the outcome in experiment [2] was Active. The IC50 in experiment [4] (read-out: IC50) came to 1290 µM.
`CCOP(=O)(CC(=O)Nc1ccon1)OCC`: the outcome in experiment [2] was Active. For the same compound, the inhibition in experiment [3] was determined as 11.7%. Also, in experiment [4] (read-out: IC50), the IC50 is 1170 µM.
For `O=C(CP(=O)([O-])[O-])Nc1ccccn1.[Na+].[Na+]`, in experiment [2], the outcome was Active. Moreover, the inhibition result in experiment [3] is “inactive”. Besides, in experiment [4], the IC50 result is “Not Active”.
Turning to `CC(=O)c1sc(NC(=O)CP(=O)(O)O)nc1C`, in experiment [2], the result was Active. In addition, in experiment [3], the inhibition was determined as 16.6%. For the same compound, the IC50 in experiment [4] (read-out: IC50) was > 1500 µM.
`O=C(CP(=O)(O)O)Nc1ccon1`: the outcome in experiment [2] was Active. For the same compound, the inhibition in experiment [3] stood at 12.2%. Besides, the IC50 in experiment [4] (read-out: IC50) was > 1500 µM.
Turning to `O=C(CP(=O)(O)O)NCc1ccco1`, the outcome in experiment [2] was Active. Further, the inhibition in experiment [3] is 30%. In experiment [4] (read-out: IC50), the IC50 amounted to 1030 µM.
Take `CCOP(=O)(CC(=O)Nc1ccccn1)OCC`: the outcome in experiment [2] was Active. Further, the inhibition in experiment [3] was 58.5%. For the same compound, in experiment [4] (read-out: IC50), the IC50 was 472 µM.
In the case of `CCOP(=O)(CC(=O)Nc1nccs1)OCC`, the outcome in experiment [2] was Active. In experiment [3], the inhibition was 28.9%. Moreover, the IC50 in experiment [4] (read-out: IC50) stood at 730 µM.
As to `CCOP(=O)(CC(=O)NCc1ccco1)OCC`, the result in experiment [2] was Active. In addition, the inhibition in experiment [3] was determined as 67.7%. For the same compound, the IC50 in experiment [4] (read-out: IC50) came to 408 µM.
